pIC50: −log10 of the molar value.
biological target: T1, Cytoplasmic tyrosine-protein kinase BMX (Homo sapiens, UniProt P51813); experiment: ChEBML_1715921
T1 sequence (P51813 whole entry): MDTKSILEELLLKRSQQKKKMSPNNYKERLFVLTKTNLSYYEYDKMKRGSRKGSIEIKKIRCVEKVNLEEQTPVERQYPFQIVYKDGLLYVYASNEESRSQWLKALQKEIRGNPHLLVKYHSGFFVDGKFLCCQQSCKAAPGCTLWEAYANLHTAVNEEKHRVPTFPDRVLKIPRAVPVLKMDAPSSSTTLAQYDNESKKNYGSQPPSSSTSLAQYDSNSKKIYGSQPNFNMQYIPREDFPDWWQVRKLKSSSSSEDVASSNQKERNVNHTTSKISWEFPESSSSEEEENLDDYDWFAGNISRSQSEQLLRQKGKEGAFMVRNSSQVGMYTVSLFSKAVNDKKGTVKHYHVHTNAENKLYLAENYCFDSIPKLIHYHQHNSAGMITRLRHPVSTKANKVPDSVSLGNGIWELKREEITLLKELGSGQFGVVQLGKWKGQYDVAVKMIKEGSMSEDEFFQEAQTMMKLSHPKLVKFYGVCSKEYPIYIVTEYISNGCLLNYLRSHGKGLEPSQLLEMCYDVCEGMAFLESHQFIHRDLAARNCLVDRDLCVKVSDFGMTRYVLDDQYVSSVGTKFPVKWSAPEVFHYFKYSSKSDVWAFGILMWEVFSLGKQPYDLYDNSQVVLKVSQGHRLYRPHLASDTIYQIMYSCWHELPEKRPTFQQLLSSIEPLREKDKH
Description: Inhibition of recombinant full length His-tagged human BMX expressed in baculovirus expression system using poly (4:1 Glu, Tyr) as substrate preincubated for 1 hr followed by substrate addition measured after 1 hr by ADP-glo assay

Question: With `C=CC(=O)Nc1cc(-n2c(=O)ccc3cnc4ccc(-c5cnc6ccccc6c5)cc4c32)ccc1C` [QL-XII-54] as the compound, how does the pIC50 read?
Answer: Its pIC50 is 7.72.

Question: With `C=CC(=O)N1CCc2ccc(-n3c(=O)ccc4cnc5ccc(-c6ccc(N)nc6)cc5c43)cc21` [QL-XII-45] as the compound, how does the pIC50 read?
Answer: Its pIC50 is 7.89.

Question: With `C=CC(=O)Nc1cc(-n2c(=O)ccc3cnc4ccc(-c5ccc6c(c5)OCCO6)cc4c32)ccc1C` [QL-XII-115] as the compound, how does the pIC50 read?
Answer: The pIC50 was 7.89.

Question: `C=CC(=O)Nc1cc(-n2c(=O)ccc3cnc4ccc(-c5ccsc5)cc4c32)ccc1C` [QL-XI-75] was tested. Which pIC50 did it give?
Answer: Its pIC50 is 7.70.

Question: `C=CC(=O)Nc1cccc(-n2c(=O)ccc3cnc4ccc(-c5ccc(N)nc5)cc4c32)c1` [QL-X-132] was tested. Which pIC50 did it give?
Answer: The pIC50 was 7.80.

Question: How did the pIC50 turn out when `C=CC(=O)Nc1cccc(-n2c(=O)ccc3cnc4ccc(-c5cn[nH]c5)cc4c32)c1` [QL-XI-13] was run?
Answer: The pIC50 was 7.96.

From BindingDB's records for doi:10.1016/j.ejmech.2017.06.016 (University of Science and Technology of China, 2017)
